Source: patent publication US4882339A, “4-Amino-substituted 1,2-dihydroxynaphthalene derivatives useful in inhibiting 5-lipoxygenase activity in mammals” (Ciba-Geigy Corporation, priority 1987, dated 1989)
Read-outs that look alike come from different tables or passages of the source.

Experiments:
5-lipoxygenase [1] = molecular target: T1, 5-lipoxygenase (Cavia porcellus, UniProt A0A286X958); experiment: Inhibition of the synthesis of 5-HETE and LTB4 in A-23187-stimulated guinea pig polymorphonuclear leukocytes; type: cell-based; conditions: for IC50: in vitro
T1 construct: A-23187-stimulated guinea pig polymorphonuclear leukocytes; endogenous in cells; host or cells: guinea pig polymorphonuclear leukocytes
T1 sequence (A0A286X958 1-674): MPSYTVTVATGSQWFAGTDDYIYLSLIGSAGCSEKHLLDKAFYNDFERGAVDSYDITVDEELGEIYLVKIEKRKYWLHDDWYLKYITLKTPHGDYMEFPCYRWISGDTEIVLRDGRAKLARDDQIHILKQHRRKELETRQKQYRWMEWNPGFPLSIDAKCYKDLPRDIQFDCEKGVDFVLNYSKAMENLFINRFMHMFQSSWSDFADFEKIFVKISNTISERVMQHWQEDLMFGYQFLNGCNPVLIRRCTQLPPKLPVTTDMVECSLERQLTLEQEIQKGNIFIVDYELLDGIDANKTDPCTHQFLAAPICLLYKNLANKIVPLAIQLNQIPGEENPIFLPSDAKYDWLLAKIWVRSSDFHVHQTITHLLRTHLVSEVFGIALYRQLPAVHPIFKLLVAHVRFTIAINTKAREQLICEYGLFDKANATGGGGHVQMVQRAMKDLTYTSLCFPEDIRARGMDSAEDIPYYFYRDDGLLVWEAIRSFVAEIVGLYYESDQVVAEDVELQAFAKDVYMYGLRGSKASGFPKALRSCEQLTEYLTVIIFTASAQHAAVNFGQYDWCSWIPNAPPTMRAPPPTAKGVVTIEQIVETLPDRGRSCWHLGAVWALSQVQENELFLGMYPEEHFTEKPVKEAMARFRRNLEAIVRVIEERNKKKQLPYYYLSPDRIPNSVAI
Protocol: 5-Lipoxygenase inhibition is determined e.g. by measuring the percent inhibition of the synthesis of 5-HETE [(5S)-5-hydroxy-6,8,11,14-eicosa-tetraenoic acid] and leukotriene B4 (LTB4, 5,12-dihydroxy-6,8,10,14-eicosatetraenoic acid) in A-23187-stimulated guinea pig polymorphonuclear leukocytes, essentially according to radiometric thin-layer chromatogrpahic assays described by Walker and Dawson (J. Pharm. Pharmacol. 31: 778, 1979) and Jakschik and Lee (Nature 287: 51, 1980) used to measure the formation of 5-HETE and LTB4 -like products from ^14 C-arachidonic acid. IC50 values are determined graphically as the concentration of test compound at which the synthesis of 5-HETE and LTB4 -like products is reduced to 50% of their respective control values.

[2] = test system: rat pleurisy model of inflammation; experiment: Carrageenin-induced pleurisy model of inflammation in the rat; type: in vivo; conditions: 30 mg/kg p.o. b.i.d. for two days; 48 hours after carrageenin
5-lipoxygenase [3] = experiment: Ex vivo inhibition of 5-lipoxygenase (A-23187-stimulated LTB4 formation in whole blood), rat; conditions: about 10-100 mg/kg p.o.
Protocol: (§1) Furthermore the inhibition of 5-lipoxygenase in vivo is determined after oral or i.v. administration to rats or dogs by measuring ex vivo in whole blood the inhibition of A-23187-stimulated LTB4 formation as compared to non-treated control animals.

5-lipoxygenase [4] = experiment: Ex vivo inhibition of 5-lipoxygenase (A-23187-stimulated LTB4 formation in whole blood), dog
Protocol: as §1

[5] = In vivo metabolite identification after administration of 4-(N-methylcyclohexylamino)-1,2-diacetoxynaphthalene

IC50 (5-lipoxygenase [1]; read-out: IC50 for inhibition of the formation of LTB4) [nM]	SMILES	IC50 (5-lipoxygenase [1]; read-out: IC50 for LTB4 formation) [nM]	inhibition of the formation of 5-HETE and leukotriene B4 (5-lipoxygenase [1]; result in words)	cell count of monocytes [2]	cell count of polymorphonuclear leukocytes [2]	exudate volume [2]	inhibition of 5-lipoxygenase activity ex vivo (5-lipoxygenase [3])	inhibition of 5-lipoxygenase activity ex vivo (5-lipoxygenase [4]; 1 mg/kg i.v.)	inhibition of 5-lipoxygenase activity ex vivo (5-lipoxygenase [4]; 100 mg/kg p.o.)	in vivo metabolite [5]
–	CC(=O)Oc1cc(N(C)C2CCCCC2)c2ccccc2c1OC(C)=O [4-(N-methylcyclohexylamino)-1,2-diacetoxynaphthalene]	~1000	inhibits the formation of 5-HETE [(5S)-5-hydroxy-6,8,11,14-eicosa-tetraenoic acid] and leukotriene B4	lowers the cell count of polymorphonuclear leukocytes and of monocytes	lowers the cell count of polymorphonuclear leukocytes	causes inhibition of exudate volume	inhibits 5-lipoxygenase activity	inhibits 5-lipoxygenase activity	inhibits 5-lipoxygenase activity	–
~500	CN(C1=CC(=O)C(=O)c2ccccc21)C1CCCCC1 [4-(N-methylcyclohexylamino)-1,2-naphthoquinone]	–	–	–	–	–	–	–	–	identified as an in vivo metabolite of 4-(N-methylcyclohexylamino)-1,2-diacetoxynaphthalene
